Experimental data reported in patent US10597366B2, “Aryl ethers and uses thereof” (Peloton Therapeutics, Inc., priority 2013, dated 2020).
Blank lines part the entries; values can stand above or below the compound they belong to.

Legend:
[1] = test system: 786-O-Hif-Luc cells (luciferase gene driven by multiple HIF responsive elements); assay: Luciferase Assay; type: cell-based; conditions: 24 h, 786-O-Hif-Luc cells, about 24 hours; read-out: Mean Luciferease EC50
Procedure: A pool of infected cells were then selected against 2 μg/mL of puromycin (P8833, Sigma) for 10 days followed by limited dilution to select single clones.
Each concentration was tested in triplicate. After about 24 hours, luciferase activity was determined using ONE-Glo Luciferase Assay Reagent (E6110, Promega) following the manufacturer's recommended procedure. EC50 were calculated by using Dotmatics software.

[2] = test system: VEGFA concentration in medium of 786-O cells; assay: VEGF ELISA Assay; type: cell-based; conditions: Homo sapiens, 786-0, 786-O cells; read-out: Mean VEGF ELISA EC50
Procedure: Each concentration had duplicated wells. About 20 hours later, medium was removed by suction and each well was supplied with 180 μL of growth medium. About 20 μl freshly-made 10× compound stocks were added to each well. […] The EC50 was calculated by GraphPad Prism using the dose-response-inhibition (four parameter) equation. The cell seeded plate was then subjected to CellTiter-Glo luminescence cell viability assay (Promega) by adding 50 μL of Celltiter Glo reagent into each well and shaking the plate for 8 minutes at 550 rpm (Thermomixer R, Eppendorf) then read luminescence signal in plate reader (3 second delay, 0.5 second/well integration time, Synergy 2 multi Detection Microplate reader) immediately.

SMILES: N#Cc1cc(Oc2ccc(S(=O)(=O)C(F)(F)F)c3c2CC(F)(F)[C@H]3O)c[n+]([O-])c1 [Compound 267, (S)-3-cyano-5-((2,2-difluoro-1-hydroxy-7-((trifluoromethyl)sulfonyl)-2,3-dihydro-1H-inden-4-yl)oxy)pyridine 1-oxide]
- EC50 [1]: 160 nM
- EC50 [2]: 830 nM

SMILES: N#Cc1cc(F)cc(Oc2ccc(S(=O)(=O)C(F)F)cc2Br)c1 [Compound 132, 3-(2-Bromo-4-((difluoromethyl)sulfonyl)phenoxy)-5-fluorobenzonitrile]
- EC50 [1]: 1400 nM
- EC50 [2]: 680 nM

SMILES: N#Cc1cncc(Oc2ccc(C(F)(F)F)c3c2CC(F)(F)[C@H]3O)c1 [Compound 303, 5-[(1S)-2,2-difluoro-1-hydroxy-7-(trifluoromethyl)indan-4-yl]oxypyridine-3-carbonitrile]
- EC50 [1]: 35 nM
- EC50 [2]: 64 nM

SMILES: N#Cc1cc(F)cc(Oc2ccc(S(=N)(=O)CF)c3c2CC(F)(F)[C@H]3O)c1 (single isomer, unassigned) [Compound 274]
- EC50 [1]: 190 nM
- EC50 [2]: 1440 nM

SMILES: CS(=O)(=O)c1ccc(Oc2cc(F)cc(Br)c2)c2c1[C@H](O)C(F)(F)C2 [Compound 304, (S)-4-(3-bromo-5-fluorophenoxy)-2,2-difluoro-7-(methylsulfonyl)-2,3-dihydro-1H-inden-1-ol]
- EC50 [1]: 22 nM
- EC50 [2]: 62 nM

SMILES: O=S(=O)(CF)c1ccc(Oc2cc(F)c(F)c(F)c2)c2c1[C@H](O)C(F)(F)C2 [Compound 188, (S)-2,2-Difluoro-7-((fluoromethyl)sulfonyl)-4-(3,4,5-trifluorophenoxy)-2,3-dihydro-1H-inden-1-ol]
- EC50 [1]: 51 nM
- EC50 [2]: 88 nM

SMILES: O=S(=O)(CF)c1ccc(Oc2cc(F)cc(F)c2)c2c1[C@H](O)CC2 [Compound 60, (R)-4-(3,5-Difluorophenoxy)-7-((fluoromethyl)sulfonyl)-2,3-dihydro-1H-inden-1-ol]
- EC50 [1]: 66 nM
- EC50 [2]: 40 nM

SMILES: N#Cc1c(S(=O)(=O)C(F)(F)F)ccc(Oc2cc(F)cc(Cl)c2)c1Br [Compound 98, 2-Bromo-3-(3-chloro-5-fluorophenoxy)-6-((trifluoromethyl)sulfonyl)benzonitrile]
- EC50 [1]: 3300 nM
- EC50 [2]: 1580 nM

The next compounds have a lower EC50 [1] than those just listed; values first:

- EC50 [1]: 16 nM
- EC50 [2]: 29 nM
SMILES: O=S(=O)(c1ccc(Oc2ccc(F)cc2)c2c1[C@H](O)C(F)(F)C2)C(F)(F)F [Compound 230, (S)-2,2-Difluoro-4-(4-fluorophenoxy)-7-((trifluoromethyl)sulfonyl)-2,3-dihydro-1H-inden-1-ol]

- EC50 [1]: 13 nM
- EC50 [2]: 15 nM
SMILES: O=S(=O)(c1ccc(Oc2ccc(F)c(F)c2)c2c1[C@H](O)C(F)(F)C2)C(F)(F)F [Compound 233, (S)-4-(3,4-Difluorophenoxy)-2,2-difluoro-7-((trifluoromethyl)sulfonyl)-2,3-dihydro-1H-inden-1-ol]

- EC50 [1]: 11 nM
- EC50 [2]: 16 nM
SMILES: N#Cc1cccc(Oc2ccc(S(=O)(=O)C(F)F)c3c2CC(F)(F)[C@H]3O)c1 [Compound 236, (S)-3-((7-((difluoromethyl)sulfonyl)-2,2-difluoro-1-hydroxy-2,3-dihydro-1H-inden-4-yl)oxy)benzonitrile]

- EC50 [1]: 9 nM
- EC50 [2]: 26 nM
SMILES: O=S(=O)(c1ccc(Oc2cncc(F)c2)c2c1[C@H](O)C(F)(F)C2)C(F)(F)F [Compound 309, (S)-2,2-difluoro-4-((5-fluoropyridin-3-yl)oxy)-7-((trifluoromethyl)sulfonyl)-2,3-dihydro-1H-inden-1-ol]

- EC50 [1]: 5 nM
- EC50 [2]: 6 nM
SMILES: O=S(=O)(c1ccc(Oc2cc(F)cc(Cl)c2)c2c1[C@H](O)C(F)(F)C2)C(F)F [Compound 158, (1S)-4-(3-Chloro-5-fluoro-phenoxy)-7-(difluoromethylsulfonyl)-2,2-difluoro-indan-1-ol]

- EC50 [1]: 3 nM
- EC50 [2]: 4 nM
SMILES: N#Cc1cc(F)cc(Oc2ccc(S(=O)(=O)C(F)(F)F)c3c2CC(F)(F)[C@H]3O)c1 [Compound 185, (S)-3-((2,2-Difluoro-1-hydroxy-7-((trifluoromethyl)sulfonyl)-2,3-dihydro-1H-inden-4-yl)oxy)-5-fluorobenzonitrile]
